In PubChem BioAssay (NCI):
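Briefly, cells in 96-well plates were exposed to five compound concentrations for 48 h, and endpoints were estimated by linear interpolation. TGI: total growth inhibition.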

Columns and labels:
Assay in all cases: DTP human tumour cell line panel, 48 h
ACHN renal = tested on: ACHN renal
PC-3 prostate = tested on: PC-3 prostate
NCI-H23 lung = tested on: NCI-H23 lung
KM12 colon = tested on: KM12 colon
HOP-92 NSCLC = tested on: HOP-92 NSCLC
UACC-62 melanoma = tested on: UACC-62 melanoma
HCT-116 colon = tested on: HCT-116 colon
EKVX NSCLC = tested on: EKVX NSCLC
SF-539 CNS = tested on: SF-539 CNS
COLO 205 colon = tested on: COLO 205 colon
CAKI-1 renal = tested on: CAKI-1 renal
MDA-MB-435 = tested on: MDA-MB-435
BT-549 breast = tested on: BT-549 breast
NCI-H226 lung = tested on: NCI-H226 lung
CCRF-CEM leukemia = tested on: CCRF-CEM leukemia
SNB-19 CNS = tested on: SNB-19 CNS
RPMI-8226 leukemia = tested on: RPMI-8226 leukemia
OVCAR-3 ovarian = tested on: OVCAR-3 ovarian
HOP-62 NSCLC = tested on: HOP-62 NSCLC
A549 NSCLC = tested on: A549 NSCLC
SK-MEL-28 melanoma = tested on: SK-MEL-28 melanoma
OVCAR-8 ovarian = tested on: OVCAR-8 ovarian
K-562 leukemia = tested on: K-562 leukemia
MALME-3M melanoma = tested on: MALME-3M melanoma
M14 melanoma = tested on: M14 melanoma
MDA-N = tested on: MDA-N
SF-295 CNS = tested on: SF-295 CNS
MCF7 breast = tested on: MCF7 breast
TK-10 renal = tested on: TK-10 renal
OVCAR-5 ovarian = tested on: OVCAR-5 ovarian
SF-268 CNS = tested on: SF-268 CNS
SK-OV-3 ovarian = tested on: SK-OV-3 ovarian
U251 CNS = tested on: U251 CNS
OVCAR-4 ovarian = tested on: OVCAR-4 ovarian
HT29 colon = tested on: HT29 colon
SNB-75 CNS = tested on: SNB-75 CNS
A498 renal = tested on: A498 renal
HCC-2998 colon = tested on: HCC-2998 colon
786-0 renal = tested on: 786-0 renal
LOX IMVI melanoma = tested on: LOX IMVI melanoma
HCT-15 colon = tested on: HCT-15 colon
MDA-MB-231 breast = tested on: MDA-MB-231 breast
RXF 393 renal = tested on: RXF 393 renal
SR leukemia = tested on: SR leukemia
NCI/ADR-RES ovarian = tested on: NCI/ADR-RES ovarian
HL-60(TB) leukemia = tested on: HL-60(TB) leukemia
UACC-257 melanoma = tested on: UACC-257 melanoma
SN12C renal = tested on: SN12C renal
IGROV1 ovarian = tested on: IGROV1 ovarian
DU-145 prostate = tested on: DU-145 prostate
UO-31 renal = tested on: UO-31 renal
NCI-H460 lung = tested on: NCI-H460 lung
T-47D breast = tested on: T-47D breast
SK-MEL-2 melanoma = tested on: SK-MEL-2 melanoma
HS 578T breast = tested on: HS 578T breast
MOLT-4 leukemia = tested on: MOLT-4 leukemia
SK-MEL-5 melanoma = tested on: SK-MEL-5 melanoma
NCI-H522 lung = tested on: NCI-H522 lung
SW-620 colon = tested on: SW-620 colon

Measured: TGI

COc1cc(C=Nc2ccc(S(N)(=O)=O)cc2)cc(OC)c1
49.3 µM: MDA-MB-435
36.8 µM: HL-60(TB) leukemia
not listed: NCI-H522 lung | SW-620 colon
> 50 µM: all other assays above

COc1ccc(C(=O)Cn2c(C(C)=O)nc3ccccc32)cc1
33.7 µM: 786-0 renal
> 43.8 µM: HL-60(TB) leukemia
> 61.7 µM: NCI-H460 lung
> 57.3 µM: UO-31 renal
31.8 µM: U251 CNS
> 46.4 µM: LOX IMVI melanoma
52.4 µM: COLO 205 colon
> 92.9 µM: UACC-62 melanoma
> 78.7 µM: T-47D breast
80.6 µM: SF-295 CNS
65.7 µM: HOP-62 NSCLC
> 44.5 µM: OVCAR-8 ovarian
> 100 µM: all other assays above
